Reference: patent US20020192711A1, “Methods for identifying ligands of G-Protein-Coupled receptors” (priority 2001, published 2002)
“Also recorded” adds a separate entry of the source.

Columns and labels:
β1-adrenergic receptor = β1-adrenergic receptor (Homo sapiens, UniProt P08588); assay: Binding-displacement at β1-adrenergic receptor (FIG. 2D); conditions: membranes or solubilized receptor; 10 μM unlabeled ligand
Method: (§1) The β1-adrenergic receptor, either in the membranes or solubilized (according to the invention), was incubated with the radiolabeled ligand, iodocyanopindolol, at a set concentration, in the presence or absence of 10 μM unlabeled ligand (pindolol). In the absence of unlabeled ligand, maximal binding of the radiolabeled ligand is observed.

CCR5 [1] = biological target: T1, CCR5 (Homo sapiens, UniProt P51681, L55Q); assay: Binding-displacement of radiolabeled MIP-1β at CCR5 (FIG. 2A); conditions: CCR5 in membranes or solubilized and immobilized; various concentrations
T1 construct: made in house; host or cells: insect cells (Sf9 / High Five), baculovirus
T1 sequence (P51681 1-352 L55Q): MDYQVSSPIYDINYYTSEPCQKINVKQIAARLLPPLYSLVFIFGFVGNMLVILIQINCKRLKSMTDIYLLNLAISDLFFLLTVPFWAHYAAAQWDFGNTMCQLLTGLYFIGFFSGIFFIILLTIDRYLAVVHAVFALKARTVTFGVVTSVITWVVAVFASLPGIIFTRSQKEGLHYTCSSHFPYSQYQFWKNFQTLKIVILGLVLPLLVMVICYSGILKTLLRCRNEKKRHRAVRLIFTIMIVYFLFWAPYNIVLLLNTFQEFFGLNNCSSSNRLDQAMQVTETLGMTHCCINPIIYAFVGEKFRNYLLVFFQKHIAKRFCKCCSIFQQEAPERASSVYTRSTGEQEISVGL
Method: The CCR5 receptor, either in membranes or solubilized and immobilized onto the column, was incubated with the radiolabeled ligand, MIP-1β, at a set concentration, in the presence of various concentrations of the unlabeled ligand, MIP-1α. […] This displacement of the radioligand with increasing concentrations of unlabeled ligand gave a standard sigmoidal shaped curve. The two curves, one for the membrane binding-displacement and one for the binding-displacement for the immobilized receptor were substantially similar (within the experimental error), indicating similar functional conformation of the receptor in the membranes and immobilized receptor.

CCR5 [2] = assay: Affinity de-orphaning: in vitro translated cDNA pool incubated with immobilized CCR5-GST, SDS-PAGE/phosphorimage; format: binding; conditions: human lung cDNA library spiked with RANTES, [35S]-Met, CCR5 on sepharose beads
Method: CCR5 was obtained and prepared with a GST tag according to the steps provided in Example 1. CCR5-GST was immobilized on a glutathione column using the GST tag, and incubated with ligands obtained using in vitro translation of small pools of approximately 100 clones from a cDNA library. […] Thereafter, a human lung cDNA library was spiked with RANTES and was transcribed and translated in vitro using the TNT Quick Coupled Wheat Germ kit, available from Promega Corporation (Madison, Wis.) with [^35S]-Met. RANTES cDNA alone was used as a positive control for translation and binding experiments.
A human lung cDNA library was chosen because RANTES was originally isolated from a human lung library. Also, libraries derived from tissues having an abundant number of immune cells, such as spleen and thymus tissues also are possible sources. The cDNA was in a bacterial host (E. coli). In general, the clones were transcribed and translated, and a mixture of their respective proteins was produced in a concentrated sample. This sample then was then probed with a receptor (i.e., CCR5) to determine if there are any proteins in the pool that can bind to the receptor of interest. The concentration was approximately 5×10^9 colony forming units per ml. Thus, dilution was necessary to dilute the number of clones to approximately 100 per pool. […]

CCR5 [3] = assay: Affinity purification of THP-1 culture supernatant HPLC fractions on immobilized CCR5, silver stain/mass spectrometry; format: binding; conditions: LPS-induced THP-1 supernatant, RP-HPLC fractions
Method: Expressed CCR5-GST was immobilized in the same fashion as described above using a glutathione-sepharose resin. THP-1 cells, a monocytic cell line, were induced with lipopolysaccharide (LPS) from E. coli extracts (Sigma, St. Louis, Mo.), and grown for 48 hours. THP-1 cells were selected for the purpose of this experiment because THP-1 cells are a general monocytic cell line that expresses CCR5 (the receptor of interest). Also, THP-1 cells, and other monocytes are involved in the inflammatory process and migrate to sites of inflammation in response to a chemokine gradient. These cells can also be induced to produce more chemokines by using reagents such as lipopolysaccharide (LPS) from E. coli.
The THP-1 cells were harvested by centrifugation. […] The quantity of RANTES quantitatively determined to be approximately 1 μg in approximately 2-3 L. These crude fractions or pools were purified by CCR5 affinity columns and by incubating with the immobilized CCR5. […]
The CCR5 with column fractions were compared to CCR5-only controls because there are proteins that non-specifically bind to the column, and because the CCR5 receptor and any contaminants present in the preparation can be seen as protein bands. […] Therefore, bands that were detected only in the fraction samples were submitted for sequencing and identified by mass spectrometry. […]

CCR5 [4] = assay: Ligand mixture incubated with immobilized CCR5, western blot detection; format: binding; conditions: mixture of RANTES, MDC, gonadotropin releasing hormone
Method: CCR5 was obtained and prepared with a GST tag bound to glutathione column according to the steps provided in Example 1. Thereafter, a ligand mixture (RANTES, MDC, gonadotropin releasing hormone) was incubated with immobilized CCR5 to determine which ligands bound to the receptor. After washing to remove non-specific binding, the SDS-PAGE sample buffer was added to each, boiled for 1 minute, and loaded onto an SDS-PAGE gel. In order to analyze the beads, SDS-PAGE was performed on the various samples and transferred to nitrocellulose by western blotting to determine which ligands were bound. Duplicate samples were run, one group for detection with anti-RANTES antibody and one group for detection with anti-MDC antibody.
The molecular weights (in kDa) as determined by the standards are listed on the left side of the blot. The individual lanes are numbered across the top of the blot. Lanes 1-4 were developed with anti-RANTES antibody. […] The band at approximately 8 kDa is RANTES. […] Lane 3 is a RANTES standard (positive control). Lane 4 is the MDC (macrophage-derived chemokine) standard (negative control—[…]). Lanes 5-8 were developed with anti-MDC (macrophage-derived chemokine, a CCR4 ligand ) antibody. […] Lane 6 is the same as lane 2 but developed with anti-MDC antibody. Lane 7 is RANTES standard and Lane 8 is MDC standard. […]

CCR5 [5] = conditions: CCR5 membrane preparations; value obtained by Receptor Biology, own preparations comparable; read-out: Kd for MIP1-β binding; cited from earlier work
C5a receptor = biological target: T2, C5a receptor (Homo sapiens, UniProt P21730); assay: Binding-displacement at C5a receptor (FIG. 2E); conditions: membranes or solubilized receptor; 10 μM unlabeled ligand
T2 sequence (P21730 1-350): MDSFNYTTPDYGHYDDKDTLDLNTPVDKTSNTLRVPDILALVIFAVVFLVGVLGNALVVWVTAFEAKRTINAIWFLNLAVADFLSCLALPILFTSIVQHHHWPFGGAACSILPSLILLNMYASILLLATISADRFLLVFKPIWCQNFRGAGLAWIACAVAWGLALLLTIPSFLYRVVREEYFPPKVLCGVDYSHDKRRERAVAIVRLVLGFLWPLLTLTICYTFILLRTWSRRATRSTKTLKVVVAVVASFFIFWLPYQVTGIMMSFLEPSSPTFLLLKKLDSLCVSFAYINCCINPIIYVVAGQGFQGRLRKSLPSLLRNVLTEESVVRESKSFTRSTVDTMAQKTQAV
Method: as §1, with “[…],” for “β1-adrenergic receptor,”, “C5a,” for “iodocyanopindolol,”, “(C5a).” for “(pindolol).”

Chain of β1-adrenergic receptor (P08588 whole entry, species assumed): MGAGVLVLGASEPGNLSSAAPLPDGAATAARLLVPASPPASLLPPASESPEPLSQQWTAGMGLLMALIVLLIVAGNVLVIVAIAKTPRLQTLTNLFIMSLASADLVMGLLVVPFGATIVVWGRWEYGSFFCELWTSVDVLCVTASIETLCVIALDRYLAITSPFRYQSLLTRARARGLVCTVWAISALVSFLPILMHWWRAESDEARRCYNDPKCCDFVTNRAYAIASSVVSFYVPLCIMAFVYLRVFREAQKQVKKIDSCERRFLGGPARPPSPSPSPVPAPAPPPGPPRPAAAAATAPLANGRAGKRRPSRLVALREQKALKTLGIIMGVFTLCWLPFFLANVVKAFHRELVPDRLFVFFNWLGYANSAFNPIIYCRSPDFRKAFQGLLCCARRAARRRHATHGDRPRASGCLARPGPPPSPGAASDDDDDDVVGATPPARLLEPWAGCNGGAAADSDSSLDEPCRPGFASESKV

In the case of `CC(C)NCC(O)COc1cccc2[nH]ccc12` (stereo not drawn) [pindolol], the “displacement of radiolabeled iodocyanopindolol by unlabeled ligand” value (β1-adrenergic receptor) is reported as “displacement of the radiolabeled ligand down to background levels”.

With “MIP-1α: natural ligand for CCR5, unlabeled competing ligand” the “displacement of radiolabeled MIP-1β by unlabeled ligand” value (CCR5 [1]) was “displaced more of the radiolabeled ligand”.

In the case of RANTES: a natural ligand for CCR5, the “binding of translated ligand to immobilized CCR5” value (CCR5 [2]) is reported as “binding was observed”, the “ligand bound to immobilized CCR5, identified by mass spectrometry” value (CCR5 [3]) is reported as “ligand for CCR5” and the “binding to immobilized CCR5 from ligand mixture” value (CCR5 [4]) is reported as “specifically binds to the CCR5 receptor; also recorded: bound specifically to CCR5”.

With “statherin: second binder identified from THP-1 supernatant on CCR5 (DSSEEKFLRRIGRFGYGYGPYQPVPEQPLYPQPYQPQYQQYTF; UniProt P02808 20-62, looked up)” the “ligand bound to immobilized CCR5, identified by mass spectrometry” value (CCR5 [3]) was “binder”.

B1: MDC: macrophage-derived chemokine, a CCR4 ligand (protein, UniProt O00626 25-93, looked up)
C-C motif chemokine 22: GPYGANMEDSVCCRDYVRYRLPLRVVKHFYWTSDSCPRPGVVLLTFRDKEICADPRVPWVKMILNKLSQ
With B1 the “binding to immobilized CCR5 from ligand mixture” value (CCR5 [4]) was “does not bind to CCR5”.

B2: MIP1-β: natural ligand for CCR5, used as radioligand (protein, UniProt P13236 24-92, looked up)
C-C motif chemokine 4: APMGSDPPTACCFSYTARKLPRNFVVDYYETSSLCSQPAVVFQTKRSKQVCADPSESWVQEYVYDLELN
modifications: also: radiolabel
For B2, the Kd (CCR5 [5]) is listed as < 1 nM.

B3: C5a: ligand of the C5a receptor (protein, UniProt P01031 678-751, looked up)
C5a anaphylatoxin: TLQKKIEEIAAKYKHSVVKKCCYDGACVNNDETCEQRAARISLGPRCIKAFTECCVVASQLRANISHKDMQLGR
modifications: C5a anaphylatoxin
notes: ligand of the C5a receptor
For B3, the “displacement of radiolabeled C5a by unlabeled ligand” value (C5a receptor) was “displacement of the radiolabeled ligand down to background levels”.
